Starred links: 1 amine or outer side, 2 acyl side, 3 side chain; linkers in the order of their positions; H or OH if unused. Positions of bridges follow the written chain, without caps; N, C: chain ends. Non-standard residues stand in square brackets, D forms with d. Residues, ends and D or L forms follow the SMILES beside them. *: point of attachment. NH(CH2)3NH(O2Oc(DOTA)) = O=C(O)CN1CCN(CC(=O)O)CCN(CC(=O)NCCOCCOCC(=O)NCCCN*)CCN(CC(=O)O)CC1; DOTA = O=C(O)CN1CCN(CC(=O)O)CCN(CC(=O)*)CCN(CC(=O)O)CC1; 1Nal = N[C@@H](Cc1cccc2ccccc12)C(=O)O; mXylylene = c1cc(C[*:1])cc(C[*:2])c1; Bta = N[C@@H](Cc1csc2ccccc12)C(=O)O; Trx = NC[C@H]1CC[C@H](C(=O)O)CC1; tBuAla = CC(C)(C)C[C@H](N)C(=O)O; Pen = CC(C)(S)[C@H](N)C(=O)O; 3Amb = NCc1cccc(C(=O)O)c1; 4Amb = NCc1ccc(C(=O)O)cc1; AEEA = NCCOCCOCC(=O)O; Aib = CC(C)(N)C(=O)O; Sar = CNCC(=O)O
Each compound was assayed against T1, CAIX-expressing human HT-29 colorectal cancer cells (Homo sapiens, UniProt Q16790) (assay: FACS binding assay (IC50 determination, competition with tracer 3BP-2776 or 3BP-4149)). Conditions: FACS competition on HT-29 cells, Tracer ID 3BP-2776 (10 nM, biotin-labeled), 4° C., 1 hour; read-out: pIC50 category (activity) (converted).
T1 construct: CAIX-expressing human HT-29 colorectal cancer cells; host or cells: HT-29 human colorectal cancer cells
Experimental: In order to determine binding of compounds according to the present invention to CAIX-expressing cells, a FACS binding assay was established.
CAIX-expressing human HT-29 colorectal cancer cells (DSMZ, RRID: CVCL_0320) were cultured in McCoys's 5A modified medium (Biochrom, #F1015) including 10% fetal calf serum (FCS), 2 mM L-glutamine, 100 U/ml penicillin and 100 μg/mL streptomycin. Cells were detached with Accutase (Biolegend, #423201) and washed in FACS buffer (PBS including 1% FCS). Cells were diluted in FACS buffer to a final concentration of 500.000 cells per ml. 200 μL of the cell suspension were transferred to a u-shaped non-binding 96-well plate (Greiner) and cells were washed in ice-cold FACS buffer.
When biotinylated compounds were used an additional incubation step with 1 μg/mL APC-Streptavidin (Miltenyi; #130-106-791) in 50 μL FACS buffer for 30 minutes on ice was performed.
Cells were washed twice with ice-cold FACS buffer and analyzed in an Attune NxT flow cytometer (Thermo Fisher). Median fluorescence intensities (MFI) of the APC/Cy5-channel were calculated by Attune NxT software. MFI values were plotted against peptide concentration and four parameter logistic (4PL) curve fitting and EC50/pEC50 or IC50/pIC50 calculations were performed using ActivityBase software.

Compound	IC50 [nM]
CC(=O)N[C@H](C(=O)N[C@@H](Cc1ccc(O)cc1)C(=O)N[C@H]1CSCc2cccc(c2)CSC[C@@H](C(N)=O)NC(=O)[C@H](CCC(N)=O)NC(=O)[C@H](Cc2c[nH]c3ccccc23)NC(=O)[C@H]([C@@H](C)O)NC(=O)[C@H](CC(C)C)NC(=O)[C@H](Cc2cccc3ccccc23)NC(=O)[C@H](CC(=O)O)NC(=O)CN(C)C(=O)[C@H](CCC(=O)O)NC1=O)C(C)C [3BP-3314] (Ac-VYCE[Sar]D[1Nal]LTWQC-NH2; linker 3-12 via mXylylene)	< 10
CC(=O)N[C@H](C(=O)N[C@@H](Cc1ccc(O)cc1)C(=O)N[C@H]1CSCc2cccc(c2)CSC[C@@H](C(N)=O)NC(=O)[C@H](CCC(N)=O)NC(=O)[C@H](Cc2csc3ccccc23)NC(=O)[C@H]([C@@H](C)O)NC(=O)[C@H](CC(C)C)NC(=O)[C@H](Cc2c[nH]c3ccccc23)NC(=O)[C@H](CC(=O)O)NC(=O)CN(C)C(=O)[C@H](CCC(=O)O)NC1=O)C(C)C [3BP-3315] (Ac-VYCE[Sar]DWLT[Bta]QC-NH2; linker 3-12 via mXylylene)	100 to 794
CC(=O)N[C@H]1CSCc2cccc(c2)CSC[C@@H](C(N)=O)NC(=O)[C@H](CCC(N)=O)NC(=O)[C@H](Cc2c[nH]c3ccccc23)NC(=O)[C@H]([C@@H](C)O)NC(=O)[C@H](CC(C)C)NC(=O)[C@H](Cc2c[nH]c3ccccc23)NC(=O)[C@H](CC(=O)O)NC(=O)CN(C)C(=O)[C@H](CCC(=O)O)NC1=O [3BP-3325] (Ac-CE[Sar]DWLTWQC-NH2; linker 1-10 via mXylylene)	100 to 794
CC(C)C[C@@H]1NC(=O)[C@H](Cc2c[nH]c3ccccc23)NC(=O)[C@H](CC(=O)O)NC(=O)[C@H]2CCCN2C(=O)[C@H](CCC(=O)O)NC(=O)[C@@H](NC(=O)[C@H](Cc2ccc(O)cc2)NC(=O)[C@@H](NC(=O)c2cccc(CNC(=O)CN3CCN(CC(=O)O)CCN(CC(=O)O)CCN(CC(=O)O)CC3)c2)C(C)C)CSCc2cccc(c2)CSC[C@@H](C(N)=O)NC(=O)[C@H](C)NC(=O)[C@H](Cc2c[nH]c3ccccc23)NC(=O)[C@H]([C@@H](C)O)NC1=O [3BP-3429] ({DOTA-3Amb}-VYCE[dP]DWLTWAC-NH2; linker 3-12 via mXylylene)	< 10
CC(C)C[C@@H]1NC(=O)[C@H](Cc2c[nH]c3ccccc23)NC(=O)[C@H](CC(=O)O)NC(=O)[C@H]2CCCN2C(=O)[C@H](CCC(=O)O)NC(=O)[C@@H](NC(=O)[C@H](Cc2ccc(O)cc2)NC(=O)[C@@H](NC(=O)[C@H]2CC[C@H](CNC(=O)CN3CCN(CC(=O)O)CCN(CC(=O)O)CCN(CC(=O)O)CC3)CC2)C(C)C)CSCc2cccc(c2)CSC[C@@H](C(N)=O)NC(=O)[C@H](C)NC(=O)[C@H](Cc2c[nH]c3ccccc23)NC(=O)[C@H]([C@@H](C)O)NC1=O [3BP-3430] ({DOTA-Trx}-VYCE[dP]DWLTWAC-NH2; linker 3-12 via mXylylene)	< 10
CC(C)[C@H](NC(=O)[C@H]1CC[C@H](CNC(=O)CN2CCN(CC(=O)O)CCN(CC(=O)O)CCN(CC(=O)O)CC2)CC1)C(=O)N[C@@H](Cc1ccc(O)cc1)C(=O)N[C@H]1CSCc2cccc(c2)CSC[C@@H](C(N)=O)NC(=O)[C@H](C)NC(=O)[C@H](Cc2c[nH]c3ccccc23)NC(=O)[C@H]([C@@H](C)O)NC(=O)[C@H](CC(C)(C)C)NC(=O)[C@H](Cc2c[nH]c3ccccc23)NC(=O)[C@H](CC(=O)O)NC(=O)[C@H]2CCCN2C(=O)[C@H](CCC(=O)O)NC1=O [3BP-3431] ({DOTA-Trx}-VYCE[dP]DW[tBuAla]TWAC-NH2; linker 3-12 via mXylylene)	< 10
CC(=O)N[C@H](C(=O)N[C@@H](Cc1ccc(O)cc1)C(=O)N[C@H]1CSCc2cccc(c2)CSC[C@@H](C(=O)NCCOCCOCC(=O)N[C@@H](CCCCNC(=O)CN2CCN(CC(=O)O)CCN(CC(=O)O)CCN(CC(=O)O)CC2)C(N)=O)NC(=O)[C@H](C)NC(=O)[C@H](Cc2c[nH]c3ccccc23)NC(=O)[C@H]([C@@H](C)O)NC(=O)[C@H](CC(C)C)NC(=O)[C@H](Cc2c[nH]c3ccccc23)NC(=O)[C@H](CC(=O)O)NC(=O)[C@H]2CCCN2C(=O)[C@H](CCC(=O)O)NC1=O)C(C)C [3BP-3474, Ac-Val-Tyr-[Cys(3MeBn)-Glu-pro-Asp-Trp-Leu-Thr-Trp-Ala-Cys]-O2Oc-Lys(DOTA)-NH2] (Ac-VYCE[dP]DWLTWAC[AEEA]K(DOTA)-NH2; linker 3-12 via mXylylene)	< 10
CC(=O)N[C@H](C(=O)N[C@@H](Cc1ccc(O)cc1)C(=O)N[C@H]1CSCc2cccc(c2)CSC[C@@H](C(=O)NCc2ccc(C(=O)N[C@@H](CCCCNC(=O)CN3CCN(CC(=O)O)CCN(CC(=O)O)CCN(CC(=O)O)CC3)C(N)=O)cc2)NC(=O)[C@H](C)NC(=O)[C@H](Cc2c[nH]c3ccccc23)NC(=O)[C@H]([C@@H](C)O)NC(=O)[C@H](CC(C)C)NC(=O)[C@H](Cc2c[nH]c3ccccc23)NC(=O)[C@H](CC(=O)O)NC(=O)[C@H]2CCCN2C(=O)[C@H](CCC(=O)O)NC1=O)C(C)C [3BP-3477] (Ac-VYCE[dP]DWLTWAC[4Amb]K(DOTA)-NH2; linker 3-12 via mXylylene)	< 10
CC(=O)N[C@H](C(=O)N[C@@H](Cc1ccc(O)cc1)C(=O)N[C@H]1CSCc2cccc(c2)CSC[C@@H](C(N)=O)NC(=O)[C@H](CCC(=O)NCCCNC(=O)COCCOCCNC(=O)CN2CCN(CC(=O)O)CCN(CC(=O)O)CCN(CC(=O)O)CC2)NC(=O)[C@H](Cc2c[nH]c3ccccc23)NC(=O)[C@H]([C@@H](C)O)NC(=O)[C@H](CC(C)C)NC(=O)[C@H](Cc2c[nH]c3ccccc23)NC(=O)[C@H](CC(=O)O)NC(=O)[C@H]2CCCN2C(=O)[C@H](CCC(=O)O)NC1=O)C(C)C [3BP-3479] (Ac-VYCE[dP]DWLTWE(NH(CH2)3NH(O2Oc(DOTA)))C-NH2; linker 3-12 via mXylylene)	< 10
CC(=O)N[C@H](C(=O)N[C@@H](Cc1ccc(O)cc1)C(=O)N[C@H]1CSCc2cccc(c2)CSC[C@@H](C(N)=O)NC(=O)[C@H](C)NC(=O)[C@H](Cc2c[nH]c3ccccc23)NC(=O)[C@H]([C@@H](C)O)NC(=O)[C@H](CC(C)(C)C)NC(=O)[C@H](Cc2c[nH]c3ccccc23)NC(=O)[C@H](CC(=O)O)NC(=O)[C@H]2CCCN2C(=O)[C@H](CCC(=O)O)NC1=O)C(C)C [3BP-3490] (Ac-VYCE[dP]DW[tBuAla]TWAC-NH2; linker 3-12 via mXylylene)	< 10
CC(=O)N[C@H](C(=O)N[C@@H](Cc1ccc(O)cc1)C(=O)N[C@H]1CSCc2cccc(c2)CSC(C)(C)[C@@H](C(N)=O)NC(=O)[C@H](C)NC(=O)[C@H](Cc2c[nH]c3ccccc23)NC(=O)[C@H]([C@@H](C)O)NC(=O)[C@H](CC(C)C)NC(=O)[C@H](Cc2c[nH]c3ccccc23)NC(=O)[C@H](CC(=O)O)NC(=O)[C@H]2CCCN2C(=O)[C@H](CCC(=O)O)NC1=O)C(C)C [3BP-3492] (Ac-VYCE[dP]DWLTWA[Pen]-NH2; linker 3-12 via mXylylene)	< 10
CC(=O)N[C@H](C(=O)N[C@@H](Cc1ccc(O)cc1)C(=O)N[C@H]1CSCc2cccc(c2)CSC(C)(C)[C@@H](C(N)=O)NC(=O)[C@H](C)NC(=O)[C@H](Cc2c[nH]c3ccccc23)NC(=O)[C@H]([C@@H](C)O)NC(=O)[C@H](CC(C)(C)C)NC(=O)[C@H](Cc2c[nH]c3ccccc23)NC(=O)[C@H](CC(=O)O)NC(=O)[C@H]2CCCN2C(=O)[C@H](CCC(=O)O)NC1=O)C(C)C [3BP-3493] (Ac-VYCE[dP]DW[tBuAla]TWA[Pen]-NH2; linker 3-12 via mXylylene)	< 10
CC(=O)N[C@H](C(=O)N[C@@H](Cc1ccc(O)cc1)C(=O)N[C@H]1CSCc2cccc(c2)CSC(C)(C)[C@@H](C(N)=O)NC(=O)[C@H](C)NC(=O)[C@H](Cc2c[nH]c3ccccc23)NC(=O)[C@H]([C@@H](C)O)NC(=O)[C@H](CC(C)(C)C)NC(=O)[C@H](Cc2c[nH]c3ccccc23)NC(=O)[C@H](CC(=O)O)NC(=O)CN(C)C(=O)[C@H](CCC(=O)O)NC1=O)C(C)C [3BP-3501] (Ac-VYCE[Sar]DW[tBuAla]TWA[Pen]-NH2; linker 3-12 via mXylylene)	< 10
CC(=O)N[C@H](C(=O)N[C@@H](Cc1ccc(O)cc1)C(=O)N[C@H]1CSCc2cccc(c2)CSC[C@@H](C(N)=O)NC(=O)[C@H](C)NC(=O)[C@H](Cc2c[nH]c3ccccc23)NC(=O)[C@H]([C@@H](C)O)NC(=O)C(C)(C)NC(=O)[C@H](Cc2c[nH]c3ccccc23)NC(=O)[C@H](CC(=O)O)NC(=O)[C@H]2CCCN2C(=O)[C@H](CCC(=O)O)NC1=O)C(C)C [3BP-3502] (Ac-VYCE[dP]DW[Aib]TWAC-NH2; linker 3-12 via mXylylene)	10 to 79.4
CC(=O)N[C@@H](CO)C(=O)N[C@@H](Cc1ccc(O)cc1)C(=O)N[C@H]1CSCc2cccc(c2)CSC[C@@H](C(N)=O)NC(=O)[C@H](CO)NC(=O)[C@H](Cc2c[nH]c3ccccc23)NC(=O)[C@H]([C@@H](C)O)NC(=O)[C@H](CC(C)C)NC(=O)[C@H](Cc2c[nH]c3ccccc23)NC(=O)[C@H](CC(=O)O)NC(=O)[C@H]2CCCN2C(=O)[C@H](CCC(=O)O)NC1=O [3BP-3566] (Ac-SYCE[dP]DWLTWSC-NH2; linker 3-12 via mXylylene)	< 10
CC(=O)N[C@H](C(=O)N[C@@H](Cc1ccc(O)cc1)C(=O)N[C@H]1CSCc2cccc(c2)CSC[C@@H](C(N)=O)NC(=O)[C@H](CO)NC(=O)[C@H](Cc2c[nH]c3ccccc23)NC(=O)[C@H]([C@@H](C)O)NC(=O)[C@H](CC(C)C)NC(=O)[C@H](Cc2c[nH]c3ccccc23)NC(=O)[C@H](CC(=O)O)NC(=O)[C@H]2CCCN2C(=O)[C@H](CCC(=O)O)NC1=O)[C@@H](C)O [3BP-3567] (Ac-TYCE[dP]DWLTWSC-NH2; linker 3-12 via mXylylene)	< 10
